The target of one test is NAMPT (Homo sapiens, UniProt P43490). Kind of test: Time-Resolved Fluorescence Resonance Energy Transfer (TR-FRET) Binding Assay of NAMPT with PRPP. The settings on record: 2 nM NAMPT, 2 nM probe, 200 uM PRPP and 2.5 mM ATP, equilibrated 16 hours. The method in brief:
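Binding measured by TR-FRET after a 16-hour equilibration meant to permit enzymatic compound modification. Substrates present at 200 uM PRPP and 2.5 mM ATP, with 2 nM enzyme, 2 nM probe, 1 nM Tb-anti-His antibody and 2% DMSO final.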
In general terms: Time-resolved FRET reads energy transfer from a long-lived donor to a nearby acceptor.

The target of test [1] is NAMPT (human, recombinant, C-terminally His-tagged) (Homo sapiens, UniProt P43490). Description: Time-Resolved Fluorescence Resonance Energy Transfer (TR-FRET) Binding Assay of NAMPT. The following applies: 6.8 nM NAMPT, 200 nM probe, equilibrated 3 hours, absence of substrates. The essentials:
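Probe displacement measured by TR-FRET (Ex 337 nm; 520/495 nm ratio) after 3 h room-temperature equilibration of compound with 6.8 nM His-tagged human NAMPT, 1 nM Tb-anti-His antibody and 200 nM Oregon Green 488 nicotinamide-site probe, pH 7.5 HEPES buffer, 2% DMSO. Control-normalized data fit four-parameter logistic for IC50.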

Sequence of NAMPT (P43490 whole entry): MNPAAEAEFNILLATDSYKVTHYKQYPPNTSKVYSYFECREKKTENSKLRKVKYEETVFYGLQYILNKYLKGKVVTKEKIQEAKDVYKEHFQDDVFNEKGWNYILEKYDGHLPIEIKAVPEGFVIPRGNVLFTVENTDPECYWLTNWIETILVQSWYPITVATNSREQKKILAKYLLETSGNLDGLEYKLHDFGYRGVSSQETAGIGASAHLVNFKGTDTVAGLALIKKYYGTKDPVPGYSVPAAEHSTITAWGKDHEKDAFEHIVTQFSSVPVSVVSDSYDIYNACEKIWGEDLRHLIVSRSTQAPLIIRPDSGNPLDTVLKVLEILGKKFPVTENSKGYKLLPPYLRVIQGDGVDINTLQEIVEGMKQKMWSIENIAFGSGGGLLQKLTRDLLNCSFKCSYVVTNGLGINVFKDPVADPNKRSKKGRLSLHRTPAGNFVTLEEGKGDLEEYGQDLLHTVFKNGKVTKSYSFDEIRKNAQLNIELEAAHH
Sequence of NAMPT (human, recombinant, C-terminally His-tagged) (P43490 whole entry): as above

As to `Cc1ncccc1N1CC(C(=O)Nc2ccc(C3CCN(C(=O)C(C)(C)C)CC3)cc2)C1` [Example 185, N-{4-[1-(2,2-dimethylpropanoyl)piperidin-4-yl]phenyl}-1-(2-methylpyridin-3-yl)azetidine-3-carboxamide], the IC50 at NAMPT amounted to 44.1 nM; in test [1], 81.3 nM.

In the case of `Cc1ccc(C(=O)N2CCC(c3ccc(NC(=O)C4CN(c5cccnc5C)C4)cc3)CC2)s1` [Example 186, 1-(2-methylpyridin-3-yl)-N-(4-{1-[(5-methylthiophen-2-yl)carbonyl]piperidin-4-yl}phenyl)azetidine-3-carboxamide], the IC50 at NAMPT stood at 118 nM; in test [1], 98.9 nM.

On to `Cc1ncccc1N1CC(C(=O)Nc2ccc(C3CCN(C(=O)c4cccs4)CC3)cc2)C1` [Example 187, 1-(2-methylpyridin-3-yl)-N-{4-[1-(thiophen-2-ylcarbonyl)piperidin-4-yl]phenyl}azetidine-3-carboxamide], for which the values for the IC50 (at NAMPT; in test [1]) were 27.3 nM and 10.2 nM, respectively.

In the case of `Cc1ncccc1N1CC(C(=O)Nc2ccc(C3CCN(C(=O)c4cccn4C)CC3)cc2)C1` [Example 188, 1-(2-methylpyridin-3-yl)-N-(4-{1-[(1-methyl-1H-pyrrol-2-yl)carbonyl]piperidin-4-yl}phenyl)azetidine-3-carboxamide], the IC50 at NAMPT was determined as 49.9 nM; in test [1], 20.5 nM.

As for `Cc1ncccc1N1CC(C(=O)Nc2ccc(C3CCN(C(=O)c4ccco4)CC3)cc2)C1` [Example 189, N-{4-[1-(furan-2-ylcarbonyl)piperidin-4-yl]phenyl}-1-(2-methylpyridin-3-yl)azetidine-3-carboxamide], the IC50 amounted to 26.9 nM at NAMPT and 6.91 nM in test [1].

For the compound `Cc1ncccc1N1CC(C(=O)Nc2ccc(C3CCN(C(=O)CCN4CCCCC4)CC3)cc2)C1` [Example 190, 1-(2-methylpyridin-3-yl)-N-(4-{1-[3-(piperidin-1-yl)propanoyl]piperidin-4-yl}phenyl)azetidine-3-carboxamide], the IC50 amounted to 103 nM on NAMPT and 1910 nM in test [1].

Take `CCOCC(=O)N1CCC(c2ccc(NC(=O)C3CN(c4cccnc4C)C3)cc2)CC1` [Example 191, N-{4-[1-(ethoxyacetyl)piperidin-4-yl]phenyl}-1-(2-methylpyridin-3-yl)azetidine-3-carboxamide]: the figures for the IC50 (at NAMPT; in test [1]) were 184 nM and 743 nM, respectively.

On to `Cc1ncccc1N1CC(C(=O)Nc2ccc(C3CCN(C(=O)CC(C)(C)C)CC3)cc2)C1` [Example 192, N-{4-[1-(3,3-dimethylbutanoyl)piperidin-4-yl]phenyl}-1-(2-methylpyridin-3-yl)azetidine-3-carboxamide], for which the 50% inhibitory concentration (IC50) was 72.3 nM on NAMPT and 47.3 nM in test [1].

For the compound `CCC(C)(C)C(=O)N1CCC(c2ccc(NC(=O)C3CN(c4cccnc4C)C3)cc2)CC1` [Example 193, N-{4-[1-(2,2-dimethylbutanoyl)piperidin-4-yl]phenyl}-1-(2-methylpyridin-3-yl)azetidine-3-carboxamide], the IC50 on NAMPT stood at 54 nM; in test [1], 40.2 nM.

As for `CCCC(=O)N1CCC(c2ccc(NC(=O)C3CN(c4cccnc4C)C3)cc2)CC1` [Example 194, N-[4-(1-butanoylpiperidin-4-yl)phenyl]-1-(2-methylpyridin-3-yl)azetidine-3-carboxamide], the IC50 was 62.6 nM on NAMPT and 122 nM in test [1].

On to `COCC(=O)N1CCC(c2ccc(NC(=O)C3CN(c4cccnc4C)C3)cc2)CC1` [Example 195, N-{4-[1-(methoxyacetyl)piperidin-4-yl]phenyl}-1-(2-methylpyridin-3-yl)azetidine-3-carboxamide], for which the IC50 came to 94.1 nM at NAMPT and 305 nM in test [1].

Regarding `Cc1ncccc1N1CC(C(=O)Nc2ccc(C3CCN(C(=O)C4CCCCC4)CC3)cc2)C1` [Example 196, N-{4-[1-(cyclohexylcarbonyl)piperidin-4-yl]phenyl}-1-(2-methylpyridin-3-yl)azetidine-3-carboxamide], the results for the IC50 (at NAMPT; in test [1]) were 98.5 nM and 83.8 nM, respectively.

In the case of `Cc1ncccc1N1CC(C(=O)Nc2ccc(C3CCN(C(=O)CC(C)C)CC3)cc2)C1` [Example 197, N-{4-[1-(3-methylbutanoyl)piperidin-4-yl]phenyl}-1-(2-methylpyridin-3-yl)azetidine-3-carboxamide], the IC50 was determined as 79.8 nM at NAMPT and 126 nM in test [1].

For the compound `Cc1ncccc1N1CC(C(=O)Nc2ccc(C3CCN(C(=O)C(C)C(C)C)CC3)cc2)C1` (centres unmarked) [Example 198, N-{4-[1-(2,3-dimethylbutanoyl)piperidin-4-yl]phenyl}-1-(2-methylpyridin-3-yl)azetidine-3-carboxamide], the IC50 worked out at 103 nM on NAMPT and 84.5 nM in test [1].

With `O=C(Nc1ccc(OC2CN(C(=O)c3ccc(F)cc3)C2)cc1)C1CN(c2ccnnc2)C1` [Example 199, N-(4-{[1-(4-fluorobenzoyl)azetidin-3-yl]oxy}phenyl)-1-(pyridazin-4-yl)azetidine-3-carboxamide], the IC50 came to 28 nM on NAMPT and 33.7 nM in test [1].

Take `O=C(Nc1ccc(OC2CN(C(=O)c3ccc(F)cc3F)C2)cc1)C1CN(c2ccnnc2)C1` [Example 200, N-(4-{[1-(2,4-difluorobenzoyl)azetidin-3-yl]oxy}phenyl)-1-(pyridazin-4-yl)azetidine-3-carboxamide]: the IC50 was found to be 34.4 nM at NAMPT and 33.1 nM in test [1].

Regarding `O=C(Nc1ccc(OC2CN(C(=O)C(F)(F)c3ccccc3)C2)cc1)C1CN(c2ccnnc2)C1` [Example 201, N-[4-({1-[difluoro(phenyl)acetyl]azetidin-3-yl}oxy)phenyl]-1-(pyridazin-4-yl)azetidine-3-carboxamide], the results for the IC50 (on NAMPT; in test [1]) were 18.2 nM and 12.1 nM, respectively.

In the case of `O=C(Nc1ccc(OC2CN(C(=O)C3CCC(F)(F)CC3)C2)cc1)C1CN(c2ccnnc2)C1` [Example 202, N-[4-({1-[(4,4-difluorocyclohexyl)carbonyl]azetidin-3-yl}oxy)phenyl]-1-(pyridazin-4-yl)azetidine-3-carboxamide], the IC50 on NAMPT turned out to be 89.5 nM; in test [1], 117 nM.

Consider `O=C(Nc1ccc(OC2CN(C(=O)Cc3ccc(F)cc3)C2)cc1)C1CN(c2ccnnc2)C1` [Example 203, N-[4-({1-[(4-fluorophenyl)acetyl]azetidin-3-yl}oxy)phenyl]-1-(pyridazin-4-yl)azetidine-3-carboxamide], for which the IC50 on NAMPT amounted to 21.1 nM; in test [1], 34.2 nM.

As for `O=C(Nc1ccc(C2CCN(C(=O)CC3CCCC3)CC2)cc1)[C@H]1CCN(c2cccnc2)C1` [Example 204, (3S)—N-{4-[1-(cyclopentylacetyl)piperidin-4-yl]phenyl}-1-(pyridin-3-yl)pyrrolidine-3-carboxamide], the IC50 worked out at 2.76 nM at NAMPT and 380 nM in test [1].

With `O=C(Nc1ccc(OC2CN(C(=O)c3ccc(C(F)(F)F)cc3)C2)cc1)C1CN(c2ccnnc2)C1` [Example 205, 1-(pyridazin-4-yl)-N-[4-({1-[4-(trifluoromethyl)benzoyl]azetidin-3-yl}oxy)phenyl]azetidine-3-carboxamide], the IC50 on NAMPT amounted to 34 nM; in test [1] it was 25.1 nM.

As to `O=C(Nc1ccc(OC2CN(C(=O)c3ccccc3)C2)cc1)C1CN(c2ccnnc2)C1` [Example 206, N-{4-[(1-benzoylazetidin-3-yl)oxy]phenyl}-1-(pyridazin-4-yl)azetidine-3-carboxamide], the figures for the IC50 (at NAMPT; in test [1]) were 24.1 nM and 23.8 nM, respectively.

As for `CC(C)(O)C(=O)N1CC(Oc2ccc(NC(=O)C3CN(c4ccnnc4)C3)cc2)C1` [Example 207, N-(4-{[1-(2-hydroxy-2-methylpropanoyl)azetidin-3-yl]oxy}phenyl)-1-(pyridazin-4-yl)azetidine-3-carboxamide], the IC50 on NAMPT came out at 86.7 nM; in test [1], 141 nM.

Take `O=C(Nc1ccc(OC2CN(C(=O)C3CCOC3)C2)cc1)C1CN(c2ccnnc2)C1` (centres unmarked) [Example 208, 1-(pyridazin-4-yl)-N-(4-{[1-(tetrahydrofuran-3-ylcarbonyl)azetidin-3-yl]oxy}phenyl)azetidine-3-carboxamide]: the IC50 on NAMPT came to 49.6 nM; in test [1], 117 nM.

Regarding `O=C(Nc1ccc(OC2CN(C(=O)c3ccoc3)C2)cc1)C1CN(c2ccnnc2)C1` [Example 209, N-(4-{[1-(furan-3-ylcarbonyl)azetidin-3-yl]oxy}phenyl)-1-(pyridazin-4-yl)azetidine-3-carboxamide], the IC50 at NAMPT was 28.9 nM; in test [1], 61.7 nM.

`CCCCC(=O)N1CC(Oc2ccc(NC(=O)C3CN(c4ccnnc4)C3)cc2)C1` [Example 210, N-{4-[(1-pentanoylazetidin-3-yl)oxy]phenyl}-1-(pyridazin-4-yl)azetidine-3-carboxamide]: the IC50 on NAMPT stood at 38.3 nM; in test [1], 31.7 nM.

In the case of `O=C(Nc1ccc(OC2CCN(C(=O)c3ccccc3Cl)CC2)cc1)C1CN(c2cccnn2)C1` [Example 211, N-(4-{[1-(2-chlorobenzoyl)piperidin-4-yl]oxy}phenyl)-1-(pyridazin-3-yl)azetidine-3-carboxamide], the values for the IC50 (at NAMPT; in test [1]) were 0.801 nM and 31.9 nM, respectively.

Turning to `CC[C@H](C)C(=O)N1CCC(Oc2ccc(NC(=O)C3CN(c4cccnn4)C3)cc2)CC1` [Example 212, N-[4-({1-[(2S)-2-methylbutanoyl]piperidin-4-yl}oxy)phenyl]-1-(pyridazin-3-yl)azetidine-3-carboxamide], the IC50 was 0.787 nM on NAMPT and 70.4 nM in test [1].

As usually defined, the IC50 is the concentration at which inhibition is half-maximal.

Source of the values: patent US8975398B2, “NAMPT inhibitors” (AbbVie Inc., priority 2012, dated 2015).
